This is an account of results in patent US20250019385A1, “SPIROCYCLIC ANNULATED 2-AMINO-3-CYANO THIOPHENES AND DERIVATIVES FOR THE TREATMENT OF CANCER” (Boehringer Ingelheim International GmbH, priority 2023, published 2025).

For one data set, the system named is Ba/F3 cells KRAS G12C. Put plainly: Ba/F3 proliferation assay (KRAS G12C). As to conditions: Mus musculus, BaF3, 72 h, AlamarBlue viability. Format: cell-based. As for the experimental part:
(§1) Ba/F3 cells are ordered from DSMZ (ACC300, Lot17) and grown in RPMI-1640 (ATCC 30-2001)+10% FCS+10 ng/mL IL-3 at 37° C. in 5% […] atmosphere. Plasmids containing KRASG12 mutants (i.e. […], G12C, G12V) are obtained from GeneScript. To generate KRASG12-dependent Ba/F3 models, Ba/F3 cells are transduced with retroviruses containing vectors that harbor KRASG12 isoforms. Platinum-E cells (Cell Biolabs) are used for retrovirus packaging. Retrovirus is added to Ba/F3 cells. To ensure infection, 4 μg/mL polybrene is added and cells are spinfected. Infection efficiency is confirmed by measuring GFP-positive cells using a cell analyzer. Cells with an infection efficiency of 10% to 20% are further cultivated and puromycin selection with 1 μg/mL is initiated. As a control, parental Ba/F3 cells are used to show selection status. Selection is considered successful when parental Ba/F3 cells cultures died. To evaluate the transforming potential of KRASG12 mutations, the growth medium is no longer supplemented with IL-3. Ba/F3 cells harboring the empty vector are used as a control. Approximately ten days before conducting the experiments, puromycin is left out.
(§2) For proliferation assays, Ba/F3 cells are seeded into 384-well plates at 1.5×1 (M cells/60 μL in growth media (RPMI-1640+10% FCS). Compounds (10 mM stock in DMSO) are added at logarithmic dose series using the ECHO acoustic liquid handler system (Beckman Coulter), normalizing for added DMSO and including DMSO controls. All compound treatments are performed in technical duplicates. For the TO time point measurement, untreated cells are analyzed at the time of compound addition. Treated cells are incubated for 72 h at 37° C. with 5% CO2 and cell viability is measured in the PerkinElmer Envision Multimode Reader using AlamarBlue™ (ThermoFisher) viability stain. Viability (stated as percent of control) is defined as relative fluorescence units RFU of each well divided by the RFU of cells in DMSO controls. IC50 values are determined from viability measurements by non-linear regression using a four-parameter model.
Background: The colour change of resazurin is a common sign of viable cells or microbes.
Regarding `C[C@H](Oc1nc(-c2noc3c2CCC[C@@]32CCCc3sc(N)c(C#N)c32)nc2c1n(C)c(=O)n2[C@H]1CO[C@@H](C)C1)[C@@H]1CCCN1C` [II-5], half-maximal inhibition (IC50) was put at 1 nM.
Same read-out and setting: next, `CO[C@H]1C[C@@H]([C@H](C)Oc2nc(-c3onc4c3CCC[C@@]43CCCc4sc(N)c(C#N)c43)nc3c2n(C)c(=O)n3[C@@H]2CCOC2)N(C)C1` [I-2]: 41 nM; `Cc1nn([C@@H]2CCOC2)c2nc(-c3onc4c3CCC[C@@]43CCCc4sc(N)c(C#N)c43)nc(O[C@@H](C)[C@@H]3CCCN3C)c12` [I-42]: 17 nM; `CO[C@@H]1C[C@@H]([C@H](C)Oc2nc(-c3noc4c3CCC[C@@]43CCCc4sc(N)c(C#N)c43)nc3c2CN(C2COC2)C[C@]32CCOC2)N(C)C1` [II-14]: 3 nM.

The subject of a further data set is Ba/F3 cells KRAS G12V. Put plainly: Ba/F3 proliferation assay (KRAS G12V). Conditions: Mus musculus, BaF3, 72 h, AlamarBlue viability. Format: cell-based. As for the experimental part:
as §1, §2
Consider `CO[C@H]1C[C@@H]([C@H](C)Oc2nc(-c3onc4c3CCC[C@@]43CCCc4sc(N)c(C#N)c43)nc3c2n(C)c(=O)n3[C@@H]2CCOC2)N(C)C1` [I-2], for which the half-inhibitory concentration (IC50) was 21 nM.
Regarding `Cc1nn([C@@H]2CCOC2)c2nc(-c3onc4c3CCC[C@@]43CCCc4sc(N)c(C#N)c43)nc(O[C@@H](C)[C@@H]3CCCN3C)c12` [I-42], the IC50 amounted to 11 nM.
As to `CO[C@@H]1C[C@@H]([C@H](C)Oc2nc(-c3noc4c3CCC[C@@]43CCCc4sc(N)c(C#N)c43)nc3c2CN(C2COC2)C[C@]32CCOC2)N(C)C1` [II-14], the IC50 is 2 nM.

For a further data set, the system named is AsPC-1 cells. Briefly: AsPC-1 CTG proliferation assay (120 h) (pancreatic cancer, G12D). Conditions: Homo sapiens, ASPC1. Format: cell-based. As for the experimental part: (§3) AsPC-1 cells (ATCC CRL-1682) are dispensed into black 384-well plates, flat and clear bottom (Greiner, PNr. 781091) at a density of 500 cells per well in 60 μl RPMI ATCC-Formulation (PAN P04-18047)+10% FCS (fetal calf serum, HyClone, SH30084.03). Cells are incubated overnight at 37° C. in a humidified tissue culture incubator at 5% CO2. Compounds (10 mM stock in DMSO) are added at logarithmic dose series using the ECHO acoustic liquid handler system (Beckman Coulter), normalizing for added DMSO and including DMSO controls. All compound treatments are performed in technical duplicates. For the TO time point measurement, untreated cells are analyzed at the time of compound addition. Plates are incubated for 120 h, and cell viability is measured using CellTiter-Glo luminescent cell viability reagent (Promega product code G7570). Viability (stated as percent of control) is defined as relative luminescence units RLU of each well divided by the RLU of cells in DMSO controls. IC50 values are determined from viability measurements by non-linear regression using a four-parameter model.
(§4) IC50 values of representative compounds according to the invention measured with these assays in the indicated cell lines are presented in Table 46.
`C[C@H](Oc1nc(-c2noc3c2CCC[C@@]32CCCc3sc(N)c(C#N)c32)nc2c1n(C)c(=O)n2[C@H]1CO[C@@H](C)C1)[C@@H]1CCCN1C` [II-5] returned an IC50 of 40 nM.
Same read-out and setting: next, `CO[C@H]1C[C@@H]([C@H](C)Oc2nc(-c3onc4c3CCC[C@@]43CCCc4sc(N)c(C#N)c43)nc3c2n(C)c(=O)n3[C@@H]2CCOC2)N(C)C1` [I-2]: 1970 nM; `Cc1nn([C@@H]2CCOC2)c2nc(-c3onc4c3CCC[C@@]43CCCc4sc(N)c(C#N)c43)nc(O[C@@H](C)[C@@H]3CCCN3C)c12` [I-42]: 1180 nM.
Still for that read-out and setting: next, `CO[C@@H]1C[C@@H]([C@H](C)Oc2nc(-c3noc4c3CCC[C@@]43CCCc4sc(N)c(C#N)c43)nc3c2CN(C2COC2)C[C@]32CCOC2)N(C)C1` [II-14]: 57 nM.

The test system of the next data set is MKN1 cells. Put plainly: MKN1 CTG proliferation assay (120 h) (gastric cancer, wt amplified). Format: cell-based. Conditions: Homo sapiens, MKN-1. As for the experimental part: as §3, with “MKN1” for “AsPC-1”, “(JCRB0252)” for “(ATCC CRL-1682)”, “200” for “500”, “RPMI-1640” for “RPMI”, “(Gibco #A10491)+10%” for “(PAN P04-18047)+10%”
as §4
Compound `C[C@H](Oc1nc(-c2noc3c2CCC[C@@]32CCCc3sc(N)c(C#N)c32)nc2c1n(C)c(=O)n2[C@H]1CO[C@@H](C)C1)[C@@H]1CCCN1C` [II-5] showed an IC50 of 2 nM.
Still for that read-out and setting: next, `CO[C@H]1C[C@@H]([C@H](C)Oc2nc(-c3onc4c3CCC[C@@]43CCCc4sc(N)c(C#N)c43)nc3c2n(C)c(=O)n3[C@@H]2CCOC2)N(C)C1` [I-2]: 95 nM; `Cc1nn([C@@H]2CCOC2)c2nc(-c3onc4c3CCC[C@@]43CCCc4sc(N)c(C#N)c43)nc(O[C@@H](C)[C@@H]3CCCN3C)c12` [I-42]: 81 nM; `CO[C@@H]1C[C@@H]([C@H](C)Oc2nc(-c3noc4c3CCC[C@@]43CCCc4sc(N)c(C#N)c43)nc3c2CN(C2COC2)C[C@]32CCOC2)N(C)C1` [II-14]: 19 nM.

Tested on in another data set: not listed separately
Briefly: Metabolic (microsomal) stability assay, human liver microsomes (HLM). Format: in vitro ADME. As to conditions: 1 μM test compound, predicted clearance as percent of liver blood flow. As for the experimental part:
The metabolic degradation of the test compound is assayed at 37° C. with pooled liver microsomes (mouse (MLM), rat (RLM) or human (HLM)). The final incubation volume of 48 μL per time point contains TRIS buffer (pH 7.5; 0.1 M), magnesium chloride (6.5 mM), microsomal protein (0.5 mg/mL for mouse/rat, 1 mg/mL for human specimens) and the test compound at a final concentration of 1 μM. Following a short preincubation period at 37° C., the reactions are initiated by addition of 12 μL beta-nicotinamide adenine dinucleotide phosphate, reduced form (NADPH, 10 mM) and terminated by transferring an aliquot into solvent after different time points (0, 5, 15, 30, 60 min). Additionally, the NADPH-independent degradation is monitored in incubations without NADPH, terminated at the last time point by addition of acetonitrile. The quenched incubations are pelleted by centrifugation (4,000 rpm, 15 min). An aliquot of the supernatant is assayed by LC-MS/MS to quantify the concentration of parent compound in the individual samples.
In vitro intrinsic clearance (CLint,in vitro) is calculated from the time course of the disappearance of the test drug during the microsomal incubation. Each plot is fitted to the first-order elimination rate constant as C(t)=C0*exp(−ke*t), where C(t) and C0 are the concentration of unchanged test drug at incubation time t and that at preincubation and ke is the disappearance rate constant of the unchanged drug. Subsequently, CLint, in vitro (μL min^−1·amount protein) values are converted to predicted CLint,in vivo (mL min^−1·kg^−1) from incubation parameters according to the equation CLint, in vivo=CLint, in vitro×(incubation volume (mL)/amount protein (mg))×(amount protein (mg)/g liver tissue)×(liver weight/body wt.).
For better across species comparison the predicted clearance is expressed as percent of the liver blood flow [% QH] (mL min^−1·kg^−1) in the individual species. In general, high stability (corresponding to low % QH) of the compounds across species is desired.
For `C[C@H](Oc1nc(-c2noc3c2CCC[C@@]32CCCc3sc(N)c(C#N)c32)nc2c1n(C)c(=O)n2[C@H]1CO[C@@H](C)C1)[C@@H]1CCCN1C` [II-5], the “HLM QH” value is recorded as 36%.
On the same count and under the same terms, next, `CO[C@H]1C[C@@H]([C@H](C)Oc2nc(-c3onc4c3CCC[C@@]43CCCc4sc(N)c(C#N)c43)nc3c2n(C)c(=O)n3[C@@H]2CCOC2)N(C)C1` [I-2]: 73%; `Cc1nn([C@@H]2CCOC2)c2nc(-c3onc4c3CCC[C@@]43CCCc4sc(N)c(C#N)c43)nc(O[C@@H](C)[C@@H]3CCCN3C)c12` [I-42]: 36%; `CO[C@@H]1C[C@@H]([C@H](C)Oc2nc(-c3noc4c3CCC[C@@]43CCCc4sc(N)c(C#N)c43)nc3c2CN(C2COC2)C[C@]32CCOC2)N(C)C1` [II-14]: 59%.

Usually IC50 stands for the concentration needed to halve the response being measured.
